# Results reported in US20240041764A1, “Sustained-Release Oral Fosamprenavir Formulation for Treatment of Reflux” (The Medical College of Wisconsin, Inc., priority 2022, published 2024).
# Entries after “also recorded” stand apart in the source; their conditions may differ.
# Tests used:
# porcine pepsin = biological target: T1, porcine pepsin (Sus scrofa, UniProt P00791); assay: peptic activity assay, fluorescence polarization with casein-Alexa647; format: biochemical; conditions: for IC50 for pepsin: in vitro binding and inhibition assays, IC50 from kinetic traces
# T1 construct: purchased Worthington Biochemical Corporation
# Procedure: To examine whether HIV protease inhibitors bound and inhibited pepsin, we developed assays based on fluorescence polarization which measures size-dependent molecular rotation thereby permitting detection of degradation, association and dissociation events^80. A competitive binding assay was designed employing pepstatin, an inhibitor of sub-nanomolar affinity^81. Pepstatin-Alexa647 was synthesized by dissolving 1 mg pepstatin A (Sigma-Aldrich) in a 50:50 mixture of dimethylformamide (DMF) and dimethylsulfoxide (DMS) followed by the addition of N,N,N′,N′-Tetramethyl-O—(N-succinimidyl)uronium tetrafluoroborate (0.6 mg) and trimethylamine (10 μL) DMF. The mixture was stirred for 1 hour, after which 1 mg Alexa Fluor 647 Cadaverine, Disodium Salt (ThermoFisher Scientific) was added. After 2 hours, the solvents were evaporated under high vacuum (35° C.) and residue partially dissolved in 10% methanol and transferred onto a C18 cartridge (Waters Corporation, Milford, MA). Increasing percentages of methanol were used for the elution. […] An enzymatic inhibition assay was designed using casein substrate.^82 Bovine alpha casein (Sigma-Aldrich, St. Louis, MO) was labeled with Alexa Fluor 647 Carboxylic Acid, Succinimidyl Ester (ThermoFisher Scientific, Waltham, MA) as described.^82 Briefly, the two were combined at 2.5 ug/mg label to protein ratio in 0.1M sodium bicarbonate for 15 minutes and labeled casein was separated from unbound label in a Sephadex G-25 (Sigma-Aldrich) column comprised of 90×5 mm packed beads in a glass Pasteur pipette, eluted with dPBS pH7.4 (ThermoFisher Scientific). The fast-moving band (casein-bound fluorophore) was collected in ˜0.4 ml volume. Concentration of resultant probe (casein-Alexa647 in PBS-azide) was estimated via spectrophotometry using Beer's law (Implen Nanophotometer, Implen, Inc. Westlake Village, CA).
# Assays were optimized using ranges of 0.3-1000 μM unlabeled pepstatin, 100-500 nM pepstatin-Alexa647 or casein-Alexa647 probe, 0.003-3 U/μl porcine pepsin (Worthington Biochemical Corporation, Lakewood, NJ), and 5-37.5% DMSO (HIV protease inhibitor diluent) in 0.1 M HCl, pH 1 with 0.01% v/v Tween-20 in 20 μl volumes in 384-well black optical plates (Nunc, Roskilde, DK) and read on a BioTek Cytation 5 (BioTek Instruments, Winooski, VT) with far red FP filter cube (excitation/emission 620/680 nm). Unlabeled pepstatin dose-response curves were used to ensure that the assays were responsive to pepsin inhibition. […] Assays were performed twice with triplicate reactions read for five minutes and mean mP plotted against probe concentration (binding assay) or read at <2 minutes intervals over 30 minutes with mean mP of plotted over time (activity assay). Half maximal inhibitory concentration (IC50) of inhibitors were calculated from kinetic traces analyzed using an online tool (https://icekat.herokuapp.com/icekat)^83. mP was normalized to blank (absent inhibitor) to derive percent bound or activity.
# [1] = system: LPR mouse model (pepsin-mediated laryngeal damage); assay: in vivo LPR mouse model: mechanical injury plus laryngeal pepsin instillation, H&E histology; conditions: for protection against pepsin-mediated laryngeal damage (histology): 0.3 mg/ml pepsin pH7, 4 weeks
# From the text: Three replicate animals per treatment condition were anticipated to suffice for verification of reproducibility in each experiment without excessive use of animal life. The three mice were randomly allocated to treatment groups. No data were excluded from analysis.
# Six-week-old female Jackson A/J mice (Jackson Laboratory, Bar Harbor, ME) were fed D-62 powdered Wattenberg diet, 2 g/mouse/day^95 and allowed to acclimate for one week upon arrival prior to experiments. In accord with previously established methods for modeling aerodigestive tract damage attributed to GERD and LPR,^1,95-99 mechanical injury applied during the first two weeks of a four-week treatment course was used to predispose the laryngeal mucosa to chemical injury by pepsin/acid applied throughout the four weeks. […] Briefly, anesthetized mice were suspended by upper teeth on a slanted board under an operating microscope.
# In a preliminary experiment to validate the LPR mouse model (i.e. laryngeal damage by pepsin at neutral and acidic pH), 20 μl saline (solvent control) or 0.3 mg/ml pepsin at pH7.0 or 4.0 were provided to mice (n=3) by laryngeal instillation at 24, 48, and 72 hours after mechanical injury during weeks 1 and 2 (FIG. 6); laryngeal instillation without wounding (3 days/week) continued during weeks 3 and 4. […] Mice were sacrificed at conclusion of the fourth week.
# To test the protective effect of HIV protease inhibitors on pepsin-mediated damage in vivo, inhibitors were delivered by aerosol or gavage concurrently with wounding (days 2, 8) and solvent/pepsin instillation (days 3-5, 9-11, 16-18 and 23-25). Aerosol or gavage was provided on days 1-5, 8-12, 15-19, and 22-25, and mice sacrificed day 26. Mice were anesthetized with isoflurane (3% in 2.5LPM, 3-5 minutes prior to procedures) as opposed to Avertin due to frequency. […] Aerosol was generated as described^100. Briefly, a 10 ml suspension of drug in ethanol was placed in the baffle, such that the concentration would remain constant at the equilibrium solubility. Droplets of ethanol containing dissolved drug were generated by an ultrasonic atomizer (nominal frequency 1.7 MHz) and entrained by air at a flow rate of 0.5 LPM with a custom-built glass baffle (UMN Department of Chemistry Glass Shop). The aerosol cloud was then passed through a cylindrical drying column containing an annular ring of charcoal. The ethanol was removed and the emanating dry aerosol particles of pure drug were then directed into the exposure chamber. The mass deposited on filters was measured gravimetrically and total output rate (mg/min) was determined. The aerosol concentration (mass/volume of air) was calculated by dividing the total output rate by the air flow rate (0.5 LPM). The inhaled mass of drug (Minh) for each mouse was defined as Minh=[Aerosol]*RMV*t, where Aerosol is the aerosol concentration of drug, RMV is the respiratory minute volume of the mice (0.025 L/min), and t is the aerosol exposure time. […] Actual mass deposited was not determined but anticipated to be 10% of inhaled mass (the deposition fraction of […] aerosol particles in mice).
# Tissues were collected, fixed in paraformaldehyde, embedded in paraffin and 4 um sections stained with hematoxylin and eosin (H&E) via automated stainer. Slides were reviewed by a board-certified pathologist (JM) blinded to treatment groups.
# T1 sequence (P00791 60-385): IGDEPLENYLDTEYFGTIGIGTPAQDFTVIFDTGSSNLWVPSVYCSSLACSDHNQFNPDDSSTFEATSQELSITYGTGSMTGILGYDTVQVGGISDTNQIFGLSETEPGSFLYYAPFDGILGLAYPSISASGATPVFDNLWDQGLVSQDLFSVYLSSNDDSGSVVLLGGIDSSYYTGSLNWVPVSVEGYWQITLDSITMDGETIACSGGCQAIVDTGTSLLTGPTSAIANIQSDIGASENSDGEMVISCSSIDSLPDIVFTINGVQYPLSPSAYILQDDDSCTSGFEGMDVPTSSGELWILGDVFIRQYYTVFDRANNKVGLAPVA
structure (smiles),measurement,setting,value
"CC(C)CN(C[C@@H](O)[C@H](Cc1ccccc1)NC(=O)O[C@H]1CO[C@H]2OCC[C@H]21)S(=O)(=O)c1ccc(N)cc1 [darunavir, [(3aS,4R,6aR)-2,3,3a,4,5,6a-hexahydrofuro[2,3-b]furan-4-yl]N-[(2S,3R)-4-[(4-aminophenyl)sulfonyl-(2-methylpropyl)amino]-3-hydroxy-1-phenylbutan-2-yl]carbamate]",inhibited pepsin (peptic activity),"porcine pepsin; 200 nM probe, 0.01 U/μL pepsin, 5% DMSO, 0.1 M HCl pH 1",low micromolar
same,IC50 for pepsin,porcine pepsin,low micromolar range
same,IC50 for pepsin,porcine pepsin; listed as Darunavir,lowest IC50
same,"laryngeal histology, drug with saline (solvent), no pepsin",[1]; aerosol,absent
same,protection against pepsin-mediated laryngeal damage (histology),"[1]; aerosol, inhaled mass 0.93 mg/kg/day fosamprenavir, 12 mg/kg/day darunavir",moderate protection against pepsin-mediated damage; also recorded: mild protection against pepsin-mediated damage
same,"laryngeal histology, drug with saline (solvent), no pepsin",[1]; gavage,Mild reactivity
same,protection against pepsin-mediated laryngeal damage (histology),"[1]; gavage, 20 mg/kg/day fosamprenavir (Lexiva), 8.6 mg/kg/day darunavir (Prezista)",obscured the ability to detect its effect on pepsin-mediated damage and not and appeared similar
same,"laryngeal histology, drug with saline (solvent), no pepsin","[1]; gavage, listed as Darunavir",mild reactivity (rare intraepithelial lymphocytes)
